The values that follow come from the OligoGym collection.

The series deals with SOD1. The experiment in a line: mouse, dose not given. As to conditions: ASO.

HELM strings list units from the 5' end as sugar, base in round brackets, then linkage (d deoxyribose, r ribose, m 2'-O-methyl, p phosphodiester). Strings are as the collection lists them; they lack the last nucleoside at the 3' end of the tested compound. [moe] = 2'-O-(2-methoxyethyl) (MOE); [sp] = phosphorothioate linkage; [m5C] = 5-methylcytosine

Turning to “RNA1{[moe]([m5C])[sp].[moe]([m5C])[sp].[moe](G)[sp].[moe](T)[sp].[moe]([m5C])[sp].d(G)[sp].d([m5C])[sp].d([m5C])[sp].d([m5C])[sp].d(T)[sp].d(T)[sp].d([m5C])[sp].d(A)[sp].d(G)[sp].d([m5C])[sp].[moe](A)[sp].[moe]([m5C])[sp].[moe](G)[sp].[moe]([m5C])}$$$$ (last 3' nucleoside missing)”, the 3 h FOB score was 6.5 score 0-7.

As for “RNA1{[moe]([m5C])[sp].[moe](A)p.[moe](G)[sp].[moe](G)p.[moe](A)[sp].d(T)[sp].d(A)[sp].d([m5C])[sp].d(A)[sp].d(T)[sp].d(T)[sp].d(T)[sp].d([m5C])[sp].d(T)[sp].d(A)[sp].[moe]([m5C])p.[moe](A)[sp].[moe](G)p.[moe]([m5C])}$$$$ (last 3' nucleoside missing)”, the 3 h FOB score came out at 1.25 score 0-7.
